“Also recorded” adds a separate entry of the source. Where two headings read alike, the source gives them in different places.
What was measured:
[1] = system: dopaminergic neuronal cell death in mouse PD model, nigral neurons, SH-SY5Y cells; settings: cited from earlier work
[2] = cited from earlier work
PC12 cells [3] = settings: cited from earlier work
[4] = DPPH radical scavenger assay (cell-free); settings: for DPPH radicals scavenged: 100 µM
Method: DPPH radical scavenging activity of compounds was tested as described.
Compounds were dissolved in MeOH, and the solutions (160 µL) were dispensed into wells of a 96-well microplate. In all, 40 µL of the DPPH (Sigma-Aldrich, Steinheim, Germany) solution in MeOH (1.5 × 10^−4 M) was added to each well. Concentrations of compounds in mixture were 10 and 100 µM. The mixture was shaken and left to stand for 30 min, and the absorbance of the resulting solution was measured at 520 nm with a microplate reader MultiscanFC (ThermoScientific, Waltham, MA, USA). Radical scavenging activity of all compounds at 100 µM were presented as percent of MeOH data, and the concentration of DPPH radical scavenging at 50% (EC50) was calculated for some compounds.

[5] = Cell viability (cytotoxicity) assay, MTT; assay type: cell-based; settings: mouse, Neuro2a neuroblastoma cells; Neuro2a cells, 24 h, MTT
Method: (§1) The neuroblastoma cell line Neuro2a was purchased from ATCC. Cells were cultured in DMEM medium containing 10% fetal bovine serum (Biolot, St. Petersburg, Russia) and 1% penicillin/streptomycin (Invitrogen, Carlsbad, CA, USA). Cells were incubated at 37 °C in a humidified atmosphere containing 5% (v/v) CO2.
(§2) Cell suspension (1 × 10^3 cells/well) was incubated with different concentration of compounds for 24 h. After that, cell viability was determined using the MTT (3-(4,5-dimethylthiazol-2-yl)-2,5- diphenyltetrazolium bromide) method, according to the manufacturer’s instructions (Sigma-Aldrich, St. Louis, MO, USA). The results were presented as percent of control data, and concentration required for 50% inhibition of cell viability (IC50) was calculated.

[6] = system: neuroblastoma Neuro2a cells; assay: Cell viability (cytotoxicity) assay, MTT; assay type: cell-based; settings: up to 100 µM
Method: as §1, §2

[7] = system: Neuro2a cells treated with 6-OHDA; assay: 6-Hydroxydopamine-induced in vitro model of Parkinson's disease, cell viability (MTT); assay type: cell-based; settings: for Effect on 6-OHDA-treated cell viability: 10 µM; for Neuroprotective effect in 6-OHDA model at tenfold reduced concentration: 1 µM (concentration reduced tenfold)
Method: The neuroprotective activities of compounds in 6-hydroxydopamine-induced cell model of Parkinson’s disease were examined, as described previously.
Neuroblastoma Neuro2a line cells (1 × 10^3 cells/well) were treated with 50 µM of 6-hydroxydopamine (Sigma-Aldrich, St. Louis, MO, USA) for 1 h and, after that, the investigated compounds were added to the neuroblastoma cell suspension at a concentration of 1 and 10 µM. In the other case, the substances were added to the cells 1 h before the addition of the neurotoxin. Cells incubated without 6-OHDA and compounds, and with 6-OHDA only, were used as positive and negative controls, respectively. After 24 h, viability of cells was measured using the MTT method. The results were presented as a percent of positive control data.

[8] = system: Neuro2a cells treated with PQ; assay: Paraquat-induced in vitro model of Parkinson's disease, cell viability (MTT); assay type: cell-based; settings: added 1 h before PQ (500 µM)
Method: Neuroblastoma Neuro2a line cells (1 × 10^3 cells/well) were treated with compounds at concentrations of 1 and 10 µM for 1 h, and then 500 µM of paraquat (Sigma-Aldrich, St. Louis, MO, USA) was added to the neuroblastoma cell suspension. Cells incubated without paraquat and compounds, and with paraquat only, were used as positive and negative controls, respectively. The viability of cells was measured after 24 h using the MTT method. The results were presented as percent of positive control data.

[9] = system: ROS formation in Neuro2a cells treated with 6-OHDA; assay: ROS level analysis in 6-OHDA-treated cells; assay type: cell-based; settings: for Reduction of ROS level in 6-OHDA-treated cells / Effect on ROS formation in 6-OHDA-treated cells: 10 µM, 6-OHDA 50 µM, 30 min
Method: (§3) Cell suspensions (1 × 10^3 cells/well) were incubated with compound solutions (10 µM) for 1 h. Then, 6-OHDA at a concentration of 50 µM was added in each well, and cells were incubated for 30 min. In other experiments, cells were incubated with PQ at a concentration of 500 µM for 30 min and 1 h. Cells incubated without 6-OHDA/PQ and compounds, and with 6-OHDA/PQ only, were used as positive and negative controls, respectively. To study ROS formation, 20 µL of 2,7-dichlorodihydrofluorescein diacetate solution (Molecular Probes, Eugene, OR, USA) was added to each well, such that the final concentration was […], and the microplate was incubated for an additional 10 min at 37 °C. The intensity of dichlorofluorescein fluorescence was measured with plate reader PHERAstar FS (BMG Labtech, Ortenberg, Germany) at λex = 485 nm, and λem = 518 nm. The data were processed by MARS Data Analysis v. 3.01R2 (BMG Labtech, Ortenberg, Germany). The results were presented as a percentage of positive control data.

[10] = system: ROS formation in Neuro2a cells treated with paraquat (PQ); assay: ROS level analysis in PQ-treated cells; assay type: cell-based; settings: for Effect on ROS formation in PQ-treated cells: added 1 h before PQ (500 µM); for Decrease of ROS formation in PQ-treated cells: added 1 h before PQ (500 µM, 1 h)
Method: as §3, with “Cell suspensions (1 × 10^3 cells/well) were incubated with compound solutions (10 µM) for 1 h.” left out

HL-60 tumor cells = settings: read-out: Cytotoxic activity IC50; cited from earlier work
A-549 tumor cells = settings: read-out: Cytotoxic activity IC50; cited from earlier work
P-388 tumor cells = settings: read-out: Cytotoxic activity IC50; cited from earlier work
PC12 cells [11] = settings: pre-treating for 3 h; cited from earlier work
[12] = system: MPTP-treated neuroblastoma cells; settings: cited from earlier work
KB tumor cells = settings: read-out: Cytotoxic activity IC50; cited from earlier work
A 549 tumor cells = settings: read-out: Cytotoxic activity IC50; cited from earlier work
[13] = cited from earlier work; remark: listed apart in the source
Candida albicans = settings: cited from earlier work
[14] = system: osteoclast differentiation; settings: cited from earlier work
[15] = compound added 1 h after 6-OHDA
[16] = compound added 1 h before 6-OHDA
[17] = read-out: DPPH scavenger activity IC50

COC(=O)[C@]12Oc3ccc(-c4ccc5c(c4O)C(=O)C4=C(O)C[C@@H](C)[C@H](O)[C@@]4(C(=O)OC)O5)c(O)c3C(=O)C1=C(O)C[C@@H](C)[C@@H]2O [Secalonic acid A]
Protection against MPTP-induced dopaminergic neuronal cell death [1]: protected

C[C@H]1CO[C@]2(C)Oc3cc(O)c4c(c3C[C@H]12)O[C@@]1(C)OC[C@H](C)[C@H]1C4 [Xyloketal B]
Free radical scavenging in DPPH assay [2]: scavenged free radicals | Protection of PC12 cells against ischemia-induced cell injury and MPTP-induced neurotoxicity (PC12 cells [3]): protected

Cc1cc(O)c(C)c(O)c1C(=O)O [Compound 2, 3-methylorsellinic acid]
DPPH radicals scavenged [4]: 10% | IC50 at 24 h [5]: > 100 µM | Cytotoxicity against Neuro2a cells [6]: not cytotoxic; also recorded: non-cytotoxic | Effect on 6-OHDA-treated cell viability [7, 15]: no neuroprotective effect | Effect on viability of PQ-treated cells [8]: did not exhibit any protective effect | Reduction of ROS level in 6-OHDA-treated cells [9]: 30% | Effect on ROS formation in PQ-treated cells [10]: reduced ROS formation

C[n+]1ccc(-c2cc[n+](C)cc2)cc1 [PQ, paraquat]
Increase of ROS levels in Neuro2a cells by the neurotoxin ([10]; 1 h after adding to the cell suspension): 39% | Effect on ROS formation in Neuro2a cells ([10]; after 30 min): insignificant

COc1c(-c2ccc(O)cc2)cc(OC)c2c1oc1cc(O)c(O)cc12 [Compound 4, candidusin A]
DPPH radicals scavenged [4]: 32% | IC50 at 24 h [5]: 75.7 ± 5.6 µM | Effect on 6-OHDA-treated cell viability [7, 16]: had no effect | Effect on viability of PQ-treated cells [8]: did not have any effect | Effect on ROS formation in 6-OHDA-treated cells [9]: did not have any effect | Decrease of ROS formation in PQ-treated cells ([10]; 10 µM): 27% | IC50 (HL-60 tumor cells): 77.6 µM | IC50 (A-549 tumor cells): 19.3 µM | IC50 (P-388 tumor cells): 46.8 µM

COc1ccc2[nH]cc(CCNC(C)=O)c2c1 [Compound 1a, Melatonin, reference compound]
Effect on 6-OHDA-treated cell viability [7, 15]: did not increase the viability | Effect on 6-OHDA-treated cell viability [7, 16]: did not increase the viability; also recorded: ineffective | Effect on ROS formation in 6-OHDA-treated cells [9]: decreased ROS formation in the 6-OHDA-treated neuronal cell stronger in comparison with 1 | Decrease of ROS formation in PQ-treated cells ([10]; 10 µM): 22% | Viability of PC12 cells in 6-OHDA-induced PD model (PC12 cells [11]): increased viability of the cells, and prevented apoptosis | Caspase-3 enzyme activity, DNA fragmentation factor 45 cleavage and DNA fragmentation [12]: diminished

COc1c(-c2ccc(O)c(O)c2)cc(OC)c2c1oc1cc(O)c(O)cc12 [Candidusin B, reference compound]
DPPH radical scavenging ([2]; 100 µg/mL): 59%

cryptoechinulin D
IC50 [2, 17]: 23.6 µM

COc1c(-c2ccccc2)cc(OC)c2c1oc1cc(O)c(O)cc12 [Compound 5, 4″-dehydroxycandidusin A]
DPPH radicals scavenged [4]: 49% | EC50 ([4]; concentration of DPPH radical scavenging at 50%): 101 ± 2.8 µM | IC50 at 24 h [5]: 78.9 ± 1.9 µM | Neuroprotective effect in 6-OHDA model at tenfold reduced concentration [7]: neuroprotective effect was not preserved | Reduction of ROS level in 6-OHDA-treated cells [9]: 34% | Decrease of ROS formation in PQ-treated cells ([10]; 1 µM): 19% | Decrease of ROS formation in PQ-treated cells ([10]; 10 µM): 40% | IC50 (KB tumor cells): 22.7 µM | IC50 (A 549 tumor cells): 34 µM

COc1cc(O)c(C)c2c1COC(C)C2 (stereo not drawn) [Compound 3, 8-methoxy-3,5-dimethylisochroman-6-ol]
IC50 at 24 h [5]: > 100 µM | Cytotoxicity against Neuro2a cells [6]: not cytotoxic; also recorded: non-cytotoxic | Effect on viability of PQ-treated cells [8]: did not exhibit any protective effect | Reduction of ROS level in 6-OHDA-treated cells [9]: 45% | Effect on ROS formation in PQ-treated cells [10]: reduced ROS formation | DPPH Radical Scavenging % at 100 µM [13]: 62.0 ± 4.6 [16] %

CC(=O)NCC(=O)c1c[nH]c2cc(O)ccc12 [Compound 1, 6-hydroxy-N-acetyl-β-oxotryptamine]
DPPH radicals scavenged [4]: 48% | IC50 at 24 h [5]: > 100 µM | Cytotoxicity against Neuro2a cells [6]: not cytotoxic; also recorded: non-cytotoxic | Reduction of ROS level in 6-OHDA-treated cells [9]: 18% | Decrease of ROS formation in PQ-treated cells ([10]; 10 µM): 35%

NCCc1cc(O)c(O)cc1O [6-OHDA, 6-hydroxydopamine, reference compound]
Increase of ROS level in Neuro2a cells by the neurotoxin ([9]; 30 min after addition to the cell suspension): 30%

neoechinulin E
IC50 [2, 17]: 46 µM

OCc1cc(O)c(Cc2cc(O)ccc2O)c(Cl)c1O [Terrestrol G]
IC50 ([2]; read-out: DPPH-scavenging IC50): 4.1 µM

CN1C(=O)[C@]23CC4=CC=C[C@H](O)[C@H]4N2C(=O)[C@@]1(CO)SS3 [Gliotoxin]
IC50 [2, 17]: 5.2 µM

CN1C(=O)C(Cc2c(O)cccc2O)NC(=O)C1Cc1ccccc1 (stereo not drawn) [Compound 6, mactanamide]
DPPH radicals scavenged [4]: 15% | IC50 at 24 h [5]: > 100 µM | Cytotoxicity against Neuro2a cells [6]: not cytotoxic; also recorded: non-cytotoxic | Neuroprotective effect in 6-OHDA model at tenfold reduced concentration [7]: neuroprotective effect was preserved | Effect on viability of PQ-treated cells [8]: did not show any neuroprotective activity | Reduction of ROS level in 6-OHDA-treated cells [9]: 30% | Decrease of ROS formation in PQ-treated cells ([10]; 1 µM): 32% | Decrease of ROS formation in PQ-treated cells ([10]; 10 µM): 37% | Activity against Candida albicans (Candida albicans): fungistatic activity | Influence on osteoclast differentiation [14]: influence on osteoclast differentiation without any cytotoxicity
